The source of these data is patent publication US20110105509A1 (Wyeth, LLC, priority 2009, published 2011).

Broadly, the pIC50 is the negative decadic logarithm of the IC50, by convention in mol/L.

pIC50: −log10 of the molar value.

In the assay the target is T1, CRTH2 (Homo sapiens, UniProt Q9Y5Y4).
T1 construct: expressed in transfected cells; host or cells: CHO cells
T1 sequence (Q9Y5Y4 1-395): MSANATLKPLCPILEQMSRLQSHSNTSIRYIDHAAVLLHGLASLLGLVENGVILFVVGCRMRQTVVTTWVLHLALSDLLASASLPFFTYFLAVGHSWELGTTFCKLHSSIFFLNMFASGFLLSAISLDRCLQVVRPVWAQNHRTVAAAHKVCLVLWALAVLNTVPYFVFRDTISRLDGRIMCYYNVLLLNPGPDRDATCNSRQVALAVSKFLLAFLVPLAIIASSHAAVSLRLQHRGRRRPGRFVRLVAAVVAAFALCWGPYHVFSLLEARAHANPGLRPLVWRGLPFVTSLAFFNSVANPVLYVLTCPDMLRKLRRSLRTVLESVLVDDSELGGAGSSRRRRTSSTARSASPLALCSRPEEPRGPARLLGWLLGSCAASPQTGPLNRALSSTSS
As to the kind of experiment: FRET based competitive immunoassay (cAMP) in CRTH2 expressing CHO cells. It is filed as cell-based. Particulars: CRTH2 expressing CHO cells incubated with forskolin and PGD2; Eu3+ cryptate-labeled anti-cAMP and d2-labeled cAMP. The method, then: FRET Assay: To evaluate potency compounds were tested in a FRET based competitive immunoassay in which CRTH2 expressing CHO cells were incubated in the presence of forskolin and PGD2 along with Eu3+ cryptate-labeled anti-cAMP and d2-labeled cAMP.
As for `Cc1c(-c2nn(Cc3ccc(C(F)(F)F)cc3)c(=O)c3ccccc23)c2cc(F)ccc2n1CC(=O)O` [Example 204, 2-(5-fluoro-2-methyl-3-(4-oxo-3-(4-(trifluoromethyl)benzyl)-3,4-dihydrophthalazin-1-yl)-1H-indol-1-yl)acetic acid], the pIC50 is 8.00.

Take `Cc1c(-c2nn(-c3ccccc3)c(=O)c3ccccc23)c2cc(F)ccc2n1CC(=O)O` [Example 205, 2-(5-fluoro-2-methyl-3-(4-oxo-3-phenyl-3,4-dihydrophthalazin-1-yl)-1H-indol-1-yl)-acetic acid]: the pIC50 was 7.22.

`Cc1c(-c2nn(-c3ccc(C(F)(F)F)cc3)c(=O)c3ccccc23)c2cc(F)ccc2n1CC(=O)O` [Example 206, 2-(5-fluoro-2-methyl-3-(4-oxo-3-(4-(trifluoromethyl)phenyl)-3,4-dihydrophthalazin-1-yl)-1H-indol-1-yl)acetic acid] had a negative-log IC50 (pIC50) of 6.49.

With `Cc1c(-c2nn(-c3cccc(C(F)(F)F)c3)c(=O)c3ccccc23)c2cc(F)ccc2n1CC(=O)O` [Example 207, 2-(5-fluoro-2-methyl-3-(4-oxo-3-(3-(trifluoromethyl)phenyl)-3,4-dihydrophthalazin-1-yl)-1H-indol-1-yl)acetic acid], the pIC50 was 6.23.

Consider `Cc1c(-c2nn(Cc3nc4cc(Cl)ccc4s3)c(=O)c3ccccc23)c2cc(F)ccc2n1CC(=O)O` [Example 208, 2-(3-(3-((5-chlorobenzo[d]thiazol-2-yl)methyl)-4-oxo-3,4-dihydrophthalazin-1-yl)-5-fluoro-2-methyl-1H-indol-1-yl)acetic acid], for which the pIC50 was 8.52. Compared with the last compound, the pIC50 is 2.29 log units higher.

`Cc1c(-c2nn(Cc3nc4cc(Cl)ccc4s3)c(=O)c3ccccc23)c2cc(Cl)ccc2n1CC(=O)O` [Example 209, 2-(5-chloro-3-(3-((5-chlorobenzo[d]thiazol-2-yl)methyl)-4-oxo-3,4-dihydro-phthalazin-1-yl)-2-methyl-1H-indol-1-yl)acetic acid]: the pIC50 is 7.85. Against the preceding compound, the pIC50 is 0.67 log units lower.

`Cc1c(-c2nn(CCOc3ccc(Cl)cc3)c(=O)c3ccccc23)c2cc(F)ccc2n1CC(=O)O` [Example 210, 2-(3-(3-(2-(4-chlorophenoxy)ethyl)-4-oxo-3,4-dihydrophthalazin-1-yl)-5-fluoro-2-methyl-1H-indol-1-yl)acetic acid]: the pIC50 was 8.70.

`Cc1c(-c2ccc(=O)n(Cc3ccccc3C(F)(F)F)n2)c2cc(Cl)ccc2n1CC(=O)O` [Example 211, 2-(5-chloro-2-methyl-3-(6-oxo-1-(2-(trifluoromethyl)benzyl)-1,6-dihydro-pyridazin-3-yl)-1H-indol-1-yl)acetic acid] gave a pIC50 of 7.66.

With `Cc1c(-c2ccc(=O)n(Cc3cccc(C(F)(F)F)c3)n2)c2cc(Cl)ccc2n1CC(=O)O` [Example 212, 2-(5-chloro-2-methyl-3-(6-oxo-1-(3-(trifluoromethyl)benzyl)-1,6-dihydropyridazin-3-yl)-1H-indol-1-yl)acetic acid], the pIC50 was 7.48.

In turn, `Cc1c(-c2ccc(=O)n(Cc3ccc(C(F)(F)F)cc3)n2)c2cc(Cl)ccc2n1CC(=O)O` [Example 213, 2-(5-chloro-2-methyl-3-(6-oxo-1-(4-(trifluoromethyl)benzyl)-1,6-dihydropyridazin-3-yl)-1H-indol-1-yl)acetic acid] had a pIC50 of 7.72. Against the preceding compound, the pIC50 is 0.24 log units higher.

In turn, `Cc1c(-c2ccc(=O)n(Cc3ccccc3)n2)c2cc(S(C)(=O)=O)ccc2n1CC(=O)O` [Example 214, 2-(3-(1-benzyl-6-oxo-1,6-dihydropyridazin-3-yl)-2-methyl-5-(methylsulfonyl)-1H-indol-1-yl)acetic acid] had a pIC50 of 6.45.

Take `Cc1c(-c2nn(Cc3ccccc3)c(=O)c3ccccc23)c2cc(S(C)(=O)=O)ccc2n1CC(=O)O` [Example 215, 2-(3-(3-benzyl-4-oxo-3,4-dihydrophthalazin-1-yl)-2-methyl-5-(methylsulfonyl)-1H-indol-1-yl)acetic acid]: the pIC50 was 7.57.

In turn, `Cc1c(-c2ccc(=O)n(Cc3ccccc3C(F)(F)F)n2)c2cc(F)ccc2n1CC(=O)O` [Example 216, 2-(5-fluoro-2-methyl-3-(6-oxo-1-(2-(trifluoromethyl)benzyl)-1,6-dihydropyridazin-3-yl)-1H-indol-1-yl)acetic acid] showed a pIC50 of 7.85.

`Cc1c(-c2ccc(=O)n(Cc3cccc(C(F)(F)F)c3)n2)c2cc(F)ccc2n1CC(=O)O` [Example 218, 2-(5-fluoro-2-methyl-3-(6-oxo-1-(3-(trifluoromethyl)benzyl)-1,6-dihydropyridazin-3-yl)-1H-indol-1-yl)acetic acid] had a pIC50 of 7.62.

Consider `Cc1c(-c2ccc(=O)n(Cc3ccccc3)n2)c2cc(Br)ccc2n1CC(=O)O` [Example 219, 2-(3-(1-benzyl-6-oxo-1,6-dihydropyridazin-3-yl)-5-bromo-2-methyl-1H-indol-1-yl)-acetic acid], for which the pIC50 is 7.52.

Compound `Cc1c(-c2nn(CC(C)(C)Oc3ccccc3)c(=O)c3ccccc23)c2cc(F)ccc2n1CC(=O)O` [Example 220, 2-(5-fluoro-2-methyl-3-(3-(2-methyl-2-phenoxypropyl)-4-oxo-3,4-dihydrophthalazin-1-yl)-1H-indol-1-yl)acetic acid] gave a pIC50 of 7.74.

In the case of `Cc1c(-c2nn(CCOc3ccccc3)c(=O)c3ccccc23)c2cc(Cl)ccc2n1CC(=O)O` [Example 221, 2-(5-chloro-2-methyl-3-(4-oxo-3-(2-phenoxyethyl)-3,4-dihydrophthalazin-1-yl)-1H-indol-1-yl)acetic acid], the pIC50 was 8.22.

As to `Cc1c(-c2nn(CCOc3ccccc3)c(=O)c3ccccc23)c2cc(F)ccc2n1CC(=O)O` [Example 222, 2-(5-fluoro-2-methyl-3-(4-oxo-3-(2-phenoxyethyl)-3,4-dihydrophthalazin-1-yl)-1H-indol-1-yl)acetic acid], the pIC50 was 9.00.

As for `Cc1c(-c2nn(CCOc3ccccc3)c(=O)c3ccccc23)c2ccccc2n1CC(=O)O` [Example 223, 2-(2-methyl-3-(4-oxo-3-(2-phenoxyethyl)-3,4-dihydrophthalazin-1-yl)-1H-indol-1-yl)acetic acid], the pIC50 was 8.22. Compared with the last compound, the pIC50 is 0.78 log units lower.

The compound `Cc1c(-c2nn(CCc3ccc(F)cc3)c(=O)c3ccccc23)c2ccccc2n1CC(=O)O` [Example 224, 2-(3-(3-(4-fluorophenethyl)-4-oxo-3,4-dihydrophthalazin-1-yl)-2-methyl-1H-indol-1-yl)acetic acid] showed a pIC50 of 7.03.

`Cc1c(-c2nn(CCc3ccccc3)c(=O)c3ccccc23)c2ccccc2n1CC(=O)O` [Example 225, 2-(2-methyl-3-(4-oxo-3-phenethyl-3,4-dihydrophthalazin-1-yl)-1H-indol-1-yl)acetic acid] had a pIC50 of 7.57.

For `Cc1c(-c2nn(CCc3ccccc3)c(=O)c3ccccc23)c2cc(F)ccc2n1CC(=O)O` [Example 226, 2-(5-fluoro-2-methyl-3-(4-oxo-3-phenethyl-3,4-dihydrophthalazin-1-yl)-1H-indol-1-yl)acetic acid], the pIC50 was 8.70.

As for `Cc1c(-c2nn(CCc3ccc(F)cc3)c(=O)c3ccccc23)c2cc(F)ccc2n1CC(=O)O` [Example 227, 2-(5-fluoro-3-(3-(4-fluorophenethyl)-4-oxo-3,4-dihydrophthalazin-1-yl)-2-methyl-1H-indol-1-yl)acetic acid], the pIC50 is 8.52. This pIC50 and that of the compound before are within 0.2 log units of each other.

`Cc1c(-c2ccc(=O)n(CCc3ccccc3)n2)c2ccccc2n1CC(=O)O` [Example 228, 2-(2-methyl-3-(6-oxo-1-phenethyl-1,6-dihydropyridazin-3-yl)-1H-indol-1-yl)acetic acid] showed a pIC50 of 6.83.

`Cc1c(-c2ccc(=O)n(CCc3ccc(F)cc3)n2)c2ccccc2n1CC(=O)O` [Example 229, 2-(3-(1-(4-fluorophenethyl)-6-oxo-1,6-dihydropyridazin-3-yl)-2-methyl-1H-indol-1-yl)acetic acid] gave a pIC50 of 6.87.

Regarding `Cc1c(-c2ccc(=O)n(CC(C)(C)Oc3ccccc3)n2)c2cc(F)ccc2n1CC(=O)O` [Example 230, 2-(5-fluoro-2-methyl-3-(1-(2-methyl-2-phenoxypropyl)-6-oxo-1,6-dihydropyridazin-3-yl)-1H-indol-1-yl)acetic acid], the pIC50 is 6.63. Against the preceding compound, the pIC50 is 0.24 log units lower.

Regarding `Cc1c(-c2ccc(=O)n(Cc3ccccc3)n2)c2cc(F)cc(Cl)c2n1CC(=O)O` [Example 231, 2-(3-(1-benzyl-6-oxo-1,6-dihydropyridazin-3-yl)-7-chloro-5-fluoro-2-methyl-1H-indol-1-yl)acetic acid], the negative-log IC50 (pIC50) is 6.40.

On to `Cc1c(-c2ccc(=O)n(C(C)C)n2)c2cc(F)cc(Cl)c2n1CC(=O)O` [Example 232, 2-(7-chloro-5-fluoro-3-(1-isopropyl-6-oxo-1,6-dihydropyridazin-3-yl)-2-methyl-1H-indol-1-yl)acetic acid], for which the negative logarithm of the IC50 (pIC50) is 5.97. This pIC50 is 0.43 log units lower than that of the compound before.

As to `Cc1c(-c2ccc(=O)n(Cc3ccccc3)n2)c2cc(F)cc(F)c2n1CC(=O)O` [Example 233, 2-(3-(1-benzyl-6-oxo-1,6-dihydropyridazin-3-yl)-5,7-difluoro-2-methyl-1H-indol-1-yl)acetic acid], the pIC50 is 6.83.

Consider `Cc1c(-c2ccc(=O)n(Cc3ccccc3)n2)c2cc(Cl)cc(Cl)c2n1CC(=O)O` [Example 234, 2-(3-(1-benzyl-6-oxo-1,6-dihydropyridazin-3-yl)-5,7-dichloro-2-methyl-1H-indol-1-yl)acetic acid], for which the pIC50 was 6.00.
